The structures appear in SMILES notation. Read-outs that look alike come from different tables or passages of the source.

The text below walks through data of patent US5863716A, “Treatment of plasmodium” (The Leland Stanford Junior University Board of Trustees, priority 1997, dated 1999).

What all share (format): cell-based, Plasmodium falciparum
In one assay the test system is sphingomyelin synthase. The assay can be described thus: Inhibition of plasmodial sphingomyelin biosynthesis in intact infected erythrocytes (C6-NBD-ceramide to C6-NBD-sphingomyelin, TLC). As to conditions: for [%] inhibition of sphingomyelin biosynthetic activity: 5 μM of compound; for effect on enzyme (sphingomyelin synthase) activity: 5 μM, see Example 3. The method, then:
1×10^8 infected cells 24 h after invasion were washed serum-free in RPMI 1640 and preincubated for thirty min at 37° C. in 1 ml of RPMI 1640 containing 0-5 μM or 0-500 μM of PPMP. (C6-NBD-ceramide (N-[7-(4-nitrobenzo-2-oxa-1,3-diazide)]-6-aminocaproyl-D-erythro-sphingosine) was added to each sample at a final concentration of 5 μM, the samples further incubated for 30 min at 37° C. and cellular lipids extracted. C6-NBD-sphingomyelin was resolved by TLC and quantitated by fluorescence spectrophotometry as described previously. Bligh, E. G. and Dyer, W. Y. (1959) A rapid method for total lipid extraction and purification., Can. J. Biochem. Physiol. 37: 911-917. Haldar, K., Uyetake, L., Ahori, N., Elmendorf, H. G. and Lu, W-1. (1991) The accumulation and metabolism of a fluorescent ceramide derivative in Plasmodium falciparum--infected erythrocytes., Mo. Biochem. Parasitol. 49: 143-156. Elmendorf, H. G. and Haldar, K. (1994) Plasmodium falciparum exports the Golgi marker sphingomyelin synthase into a tubovesicular network in the cytoplasm of mature erythrocytes., J. Cell Biol. 124: 449-462. Each value obtained represented the mean of triplicate determinations from five experiments. The arrow bars indicate the standard deviations. The results are depicted in FIG. 1.
(§1) P. falciparum strain FCB was used for all experiments and cultured in vitro in according to a modification of the method of Trager and Jensen left off. Trager, W. and Jensen, J. B. (1976) Human malaria in continuous culture., Science (Wash. D.C.) 193: 673-675 Haldar, K., Ferguson, M. A. J. and Cross, G. A. M. (1985) Acylation of a Plasmodium falciparum merozoite surface antigen via sn-1, 2-diacyl glycerol. J. Biol. Chem. 260; 4969-4974. The culture medium contained RPMI 1640 supplemented with 25 Mm hepes, Ph 7.4/11 […] glucose/92 μM hypoxanthine/0.18% sodium bicarbonate/25 μM gentamicin and 10% AB^+ human sera. The parasites were grown in A^+ erythrocytes at 2.5-5% hematocrit. Parasite cultures were synchronized by separation of the early and late stages on a Percoll gradient. The subsequent reincubation of these stages in culture were used to obtain cells 12-24 h in the life cycle. Inhibition of sphingomyelin biosynthetic activity using 5 μM of the various compounds was carried out as described in Example 1. 5 μM of the various compounds were added to 0-12 h rings in the culture medium and cells were examined by Giemsa staining after 24 h.

In a further assay the test system is P. falciparum strain FCB. The assay can be described thus: Inhibition of intraerythrocytic growth in culture, Giemsa staining after 24 h. As to conditions: for inhibition at 5 µM: Plasmodium falciparum, read-out: [%] inhibition of growth.
Excerpt: as §1

The subject of another assay is P. falciparum. Briefly: Intraerythrocytic development in long term synchronized culture, parasitemia over consecutive cycles. The note with it: Plasmodium falciparum; over three cycles of growth; read-out: lowest effective, killing concentration. On the procedure: Synchronized cultures 12 h after invasion were subjected to different concentrations of PPMP. Parasitemias of drug-treated cultures were determined at various time points during two intraerythrocytic cycles and compared to cells grown in the absence of drug.
The effect of the single lipid analogs to inhibit parasite development in long term culture in consecutive cycles of the parasite growth were investigated. The studies were initiated with synchronized, young rings (0-12h) at 10% parasitemia. In order to ensure healthy growth of the malaria parasite in vitro, the parasitemias of the cultures are not allowed to exceed 10%. Yet under normal conditions a 3-6 fold increase in parasitemias is detected with each round of invasion: thus for each new cycle, the cultures were diluted 4-fold into fresh erythrocytes in the absence or presence of the drug. […] The lowest effective, killing concentration of PDMP over three cycles of growth is 1.0 μM.

Assay [1] relates to P. falciparum schizonts and merozoites. Briefly: Schizont maturation and merozoite invasion in the presence of drug. As to conditions: 5 μM. The method, then: Schizont-stage parasites isolated over Percoll were allowed to invade in the presence of RPMI 1640 containing 10% human serum or in the presence of RPMI 1640 containing 10% human serum and 5 μM PPMP. 1×10^8 infected erythrocytes of the appropriate stage were incubated in 1 ml of RPMI 1640 supplemented with 2mg/ml defatted BSA and 20 μM C5 -DMB-ceramide. Cells were washed and fixed as described in Example 5. Sequential micrographs were taken on a custom made laser confocal microscope at 400 nm intervals along the Z axis. Raw data were processed as described previously.
Furthermore, the released daughter merozoites enter red cells to form new rings in the continued presence of the drug. This supports the conclusion that the parasite sphingomyelin synthase is essential only to ring and trophozoite-infected red cells in the first 30 to 36 h of intraerythrocytic development.
To determine whether the parasite specific sphingomyelin synthase activity is required for the development of the TVM, ring-infected erythrocytes inhibited in the enzyme from the onset of intra- erythrocytic development were employed. […] Optical sections obtained by staining with C5 DMB-ceramide were observed. A tubular structure was seen extending from the body of the parasite apparently connected to a larger vesicle in the red cell. In rings formed in the presence of PPMP, the intraerythrocytic structures are seen as discrete domains, separated from each other in all three sections. […] Thus, specific inhibition of the parasite's sphingomyelin biosynthetic activity appears to alter the interconnected "tubovesicular morphology" of the TVM into isolated intraerythrocytic compartments or "vesicles" in ring stage parasites.

[2] abbreviates: 5 μM added to 0-12 h rings, Giemsa staining after 24 h.

In the case of `CCCCCCCCCCCCCCC[C@H](O)[C@@H](N)CO` (racemic) [dl-dihydrosphingosine], in the assay with sphingomyelin synthase, the “[%] inhibition of sphingomyelin biosynthetic activity” value was determined as 4% and the “effect on enzyme (sphingomyelin synthase) activity” value was “no effect”. Moreover, in the assay on P. falciparum strain FCB (setting [2]), the “[%] inhibition of growth” value stood at 8%.
A word on the inhibition: it is how much of the control response was suppressed. Turning to `CCCCCCCCCC(=O)N[C@@H](CN1CCOCC1)[C@H](O)c1ccccc1` (relative stereo) [dl-erythro-PDMP], the inhibition at 5 µM in the assay on P. falciparum strain FCB (setting [2]) stood at 5%.
In the case of `CCCCCCCCCC(=O)N[C@H](CN1CCOCC1)[C@H](O)c1ccccc1` (relative stereo) [dl-threo-PDMP, dl-threo-1-phenyl-2-decanoylamino-3-morpholino-1-propanol], the inhibition at 5 µM in the assay with P. falciparum strain FCB (setting [2]) turned out to be 100%. Moreover, the minimal effective concentration in the assay with P. falciparum stood at 1 µM. For the same compound, the “fate of schizonts greater than 40 h in the cycle” value in assay [1] is “mature and rupture”.
As for `CCN(CC)CCO[C@H]1CC[C@@]2(C)C(=CC[C@@H]3[C@@H]2CC[C@]2(C)C(=O)CC[C@@H]32)C1` [U 18666 A], the “[%] inhibition of sphingomyelin biosynthetic activity” value with sphingomyelin synthase was 0%. Further, the inhibition at 5 µM in the assay on P. falciparum strain FCB (setting [2]) came to 1%.
For the compound `CN(C)CCCN1c2ccccc2CCc2ccccc21` [imipramine], the “[%] inhibition of sphingomyelin biosynthetic activity” value with sphingomyelin synthase was 0%. For the same compound, in the assay on P. falciparum strain FCB, the inhibition at 5 µM worked out at 7%.
Consider `CCCCCCCCCCCCC/C=C/[C@@H](O)[C@@H](N)CO` [sphingosine], for which, in the assay with sphingomyelin synthase, the “[%] inhibition of sphingomyelin biosynthetic activity” value was determined as 0% and the “effect on enzyme (sphingomyelin synthase) activity” value is “no effect”. The inhibition at 5 µM with P. falciparum strain FCB was found to be 0%.
In the case of `CCCCCCCCCCCCCCCCCCN` [stearylamine], in the assay on P. falciparum strain FCB (setting [2]), the inhibition at 5 µM came out at 0%.
